Assay results reported in US4041038A, “1-(3-Phenylpropyl)-4-(beta-alkoxyacryloyl)piperazine derivatives” (Kyorin Pharmaceutical Co., Ltd., priority 1975, dated 1977).

How the values were obtained:
[1] = 50% lethal dose in rats (i.v.); conditions: in vivo, iv, rat
Source text: (§1) The compounds included in this invention are useful as general anesthetics.

[2] = 50% lethal dose in mice (i.v.); conditions: in vivo, iv, mouse
Source text: as §1

[3] = anesthesia, sleeping time and post-anesthetic recovery in rabbits (i.v.); type: in vivo, rabbit
Experimental: In rabbits, KA-100 caused an anesthesia at the doses of more than 10 mg/kg (i.v.), and the sleeping times at 20 and 30 mg/kg were 20 min. and more than 20 min. respectively.
(§2) Thiopental-Na caused an anesthesia lasted for 13 min. after injection of 20 mg/kg and 30 min. after 30 mg/kg.

[4] = 50% anesthetic dose in rats (i.v.); type: in vivo, rat; conditions: for selectivity ratio: in vivo, read-out: LD50/AD50; for selectivity ratio / ED50: iv, rat, i.v.; for ED50: read-out: AD50 (50% anesthetic dose)
Source text: as §1

extension of hind legs = test: reflex against extension of hind legs / muscular relaxation in rabbits; type: in vivo, rabbit; conditions: for muscular relaxant activity / muscular rigidity: same doses for KA-100 and thiopental-Na
Experimental: as §2

[5] = system: withdrawal reflex against nociceptive stimuli; test: withdrawal reflex against nociceptive stimuli (pinching of hind leg toes, small incision of abdomen) in rabbits; type: in vivo, rabbit; conditions: for anti-nociceptive activity: same doses for KA-100 and thiopental-Na
Experimental: as §2

[6] = 50% anesthetic dose in mice (i.v.); type: in vivo, mouse; conditions: for selectivity ratio: in vivo, read-out: LD50/AD50; for selectivity ratio / ED50: iv, mouse, i.v.; for ED50: read-out: AD50 (50% anesthetic dose)
Source text: as §1

solubility in water = type: physicochemical; conditions: maleate, nearly physiological pH (pH 6)
[7] = disturbance of blood vessels; conditions: maleate

Structure (SMILES) | LD50 [1] [mg/kg] | LD50 [2] [mg/kg] | sleeping time / duration of anesthesia ([3]; 20 mg/kg) [min] | sleeping time / duration of anesthesia ([3]; 30 mg/kg) | selectivity ratio [4] | ED50 [4] [mg/kg] | muscular relaxant activity / muscular rigidity (extension of hind legs) | anti-nociceptive activity [5] | selectivity ratio [6] | ED50 [6] [mg/kg] | solubility in water (solubility in water) | anesthetic effect [3] | pharmacological potency ([3]; KA-100 and thiopental-Na compared) | minimal effective dose ([3]; Oryctolagus cuniculus, iv, read-out: doses that caused an anesthesia) [mg/kg] | recovery from ataxic state in post-anesthetic period ([3]; compared with thiopental-Na) | anesthetic effect ([4]; rats) | disturbance of blood vessels [7] | reflex against extension of hind legs (extension of hind legs; more than 20 mg/kg) | withdrawal reflex against nociceptive stimuli ([5]; more than 20 mg/kg) | anesthetic effect ([6]; mice)
CCCC(C)C1(CC)C(=O)NC(=S)NC1=O (stereo not drawn) [Thiopental-Na, reference compound] | 80.3 | 90.9 | 13 | 30 min | 7.5 | 10.7 | induced muscular rigidity | no anti-nociceptive effect | 4.3 | 20.9 | – | – | – | – | – | – | – | – | – | –
CCOC=CC(=O)N1C[C@H](C)N(CCCc2ccccc2)C[C@H]1C.O=C(O)/C=C\C(=O)O (relative stereo) [KA-100, trans-1-(3-phenylpropyl)-2,5-dimethyl-4-(β-ethoxyacryloyl)piperazine maleate] | 60.2 | 37.3 | 20 | more than 20 min. | 12.6 | 4.8 | muscular relaxant activity | anti-nociceptive | 4.9 | 7.6 | soluble in water | good anesthetic effect | practically equal | > 10 | far more rapid | good anesthetic effect | does not disturb blood vessels | lost the withdrawal reflex against nociceptive stimuli (pinching of hind leg toes by a forceps or small incision of abdomen) and against extension of hind legs | lost the withdrawal reflex against nociceptive stimuli | good anesthetic effect
